Laboratory results as given in ChEMBL document CHEMBL5385924, “Stereoselective Synthesis of Xylodonin A and 22-Hydroxyxylodonin A and Discovery of Analogues with Cytotoxic Activity” (J Nat Prod, 2024).
Active and inactive are the calls of the source. The calls are words filed in the database; no cut-off is given here.

Tests used:
Escherichia coli = test: Antibacterial activity against Escherichia coli assessed as inhibition of bacterial growth; format: functional, organism-based
[1] = test system: Mycolicibacterium smegmatis; test: Antibacterial activity against Mycobacterium smegmatis assessed as inhibition of bacterial growth; format: functional, organism-based
HepG2 [2] = test: Antiproliferative activity against human HepG2 cells assessed as reduction in cell viability measured after 48 hrs by CCK8 assay; format: functional, cell-based; settings: HepG2, 48 h
Proteus vulgaris = test: Antibacterial activity against Proteus vulgaris assessed as inhibition of bacterial growth; format: functional, organism-based
Candida albicans = test: Antifungal activity against Candida albicans assessed as inhibition of fungal growth; format: functional, organism-based
Pseudomonas aeruginosa = test: Antibacterial activity against Pseudomonas aeruginosa assessed as inhibition of bacterial growth; format: functional, organism-based
Salmonella typhimurium = test: Antibacterial activity against Salmonella typhimurium assessed as inhibition of bacterial growth; format: functional, organism-based; settings: Salmonella enterica subsp. enterica serovar Typhimurium
Staphylococcus aureus = test: Antibacterial activity against Staphylococcus aureus assessed as inhibition of bacterial growth; format: functional, organism-based
HepG2 [3] = test: Induction of apoptosis in human HepG2 cells assessed as viable cells at 20 uM measured after 48 hrs by AnnexinV-FITC/PI staining based flow cytometry (reference value: 95.88%); format: functional; settings: read-out: Activity
[4] = Selectivity index, ratio of IC50 for cytotoxicity against human HL7702 cells to IC50 for antiproliferative activity against human HepG2 cells; format: toxicity, cell-based; settings: HL7702 cells versus HepG2 cells, read-out: Ratio IC50
HepG2 [5] = test: Inhibition of colony formation in human HepG2 cells assessed as relative colony formation area at 10 uM treated every 6 hrs for 24 hrs followed by culturing in fresh medium for 7 days by Giemsa staining based analysis; format: functional; set-up: scale not given: the % may be the effect or the level left
HepG2 [6] = test: Antimetastatic activity against human HepG2 cells assessed as inhibition of cell migration measured after 12 to 24 hrs by scratch wound healing assay; format: functional, cell-based; settings: time 12-24 hrs
HepG2 [7] = test: Induction of apoptosis in human HepG2 cells assessed as viable cells at 10 uM measured after 48 hrs by AnnexinV-FITC/PI staining based flow cytometry (reference value: 95.88%); format: functional; settings: read-out: Activity
HepG2 [8] = test: Inhibition of colony formation in human HepG2 cells assessed as relative colony formation area at 15 uM treated every 6 hrs for 24 hrs followed by culturing in fresh medium for 7 days by Giemsa staining based analysis; format: functional; set-up: scale not given: the % may be the effect or the level left
HepG2 [9] = test: Inhibition of colony formation in human HepG2 cells assessed as relative colony formation area at 20 uM treated every 6 hrs for 24 hrs followed by culturing in fresh medium for 7 days by Giemsa staining based analysis; format: functional; set-up: scale not given: the % may be the effect or the level left
HepG2 [10] = test: Induction of apoptosis in human HepG2 cells assessed as necrotic cells at 20 uM measured after 48 hrs by AnnexinV-FITC/PI staining based flow cytometry (reference value: 0.19%); format: functional
HepG2 [11] = test: Induction of apoptosis in human HepG2 cells assessed as necrotic cells at 10 uM measured after 48 hrs by AnnexinV-FITC/PI staining based flow cytometry (reference value: 0.19%); format: functional
[12] = Cytotoxicity against human HL7702 cells assessed as reduction in cell viability measured after 48 hrs by CCK8 assay; format: toxicity, cell-based; settings: HL7702 (L02) cells
HepG2 [13] = test: Induction of apoptosis in human HepG2 cells assessed as early apoptotic cells at 20 uM measured after 48 hrs by AnnexinV-FITC/PI staining based flow cytometry (reference value: 1.21%); format: functional
HepG2 [14] = test: Induction of apoptosis in human HepG2 cells assessed as late apoptotic cells at 20 uM measured after 48 hrs by AnnexinV-FITC/PI staining based flow cytometry (reference value: 2.73%); format: functional
HepG2 [15] = test: Induction of apoptosis in human HepG2 cells assessed as late apoptotic cells at 10 uM measured after 48 hrs by AnnexinV-FITC/PI staining based flow cytometry (reference value: 2.73%); format: functional
HepG2 [16] = test: Inhibition of colony formation in human HepG2 cells assessed as relative colony formation area at 5 uM treated every 6 hrs for 24 hrs followed by culturing in fresh medium for 7 days by Giemsa staining based analysis; format: functional; set-up: scale not given: the % may be the effect or the level left
HepG2 [17] = test: Induction of apoptosis in human HepG2 cells assessed as early apoptotic cells at 10 uM measured after 48 hrs by AnnexinV-FITC/PI staining based flow cytometry (reference value: 1.21%); format: functional

Row | IC50 (HepG2 [2]) [µM] | SMILES | Activity (Escherichia coli) | Activity [1] | Activity (Proteus vulgaris) | Activity (Candida albicans) | Activity (Pseudomonas aeruginosa) | Activity (Salmonella typhimurium) | Activity (Staphylococcus aureus) | selectivity ratio [4] | IC50 at 48 h [12] [µM] | also measured
1 | > 50 | CC1(C)CCC[C@]2(C)C3=C(COC3=O)C[C@H](OC(=O)/C=C/c3ccccc3)[C@@H]12 | inactive | inactive | inactive | inactive | inactive | inactive | inactive | – | – | –
2 | > 50 | CC1(C)CCC[C@]2(C)C3=C(COC3=O)C[C@H](OC(=O)/C=C/c3ccc(C(F)(F)F)cc3)[C@@H]12 | inactive | inactive | inactive | inactive | inactive | inactive | inactive | – | – | –
3 | 8.8 | CC(=O)Oc1ccc(/C=C/C(=O)O[C@H]2CC3=C(C(=O)OC3)[C@@]3(C)CCCC(C)(C)[C@H]23)cc1 | inactive | inactive | inactive | inactive | inactive | inactive | inactive | > 11.4 | > 100 | viability at 20 µM (HepG2 [3]): 79.2%; Activity (HepG2 [5]): 8.1%; Activity (HepG2 [6]): Active; viability at 10 µM (HepG2 [7]): 91%; Activity (HepG2 [8]): 5.9%; Activity (HepG2 [9]): 2.3%; Activity (HepG2 [10]): 0.2%; Activity (HepG2 [11]): 0.27%; Activity (HepG2 [13]): 14.41%; Activity (HepG2 [14]): 6.23%; Activity (HepG2 [15]): 6.96%; Activity (HepG2 [16]): 11.2%; Activity (HepG2 [17]): 1.73%
4 | > 50 | CC1(C)CCC[C@]2(C)C3=C(COC3=O)C[C@H](OC(=O)/C=C/c3ccc(Cl)cc3)[C@@H]12 | inactive | inactive | inactive | inactive | inactive | inactive | inactive | – | – | –
5 | 5.9 | COc1cc([C@@H]2c3cc4c(cc3[C@@H](O[C@@H]3O[C@@H]5CO[C@@H](C)O[C@H]5[C@H](O)[C@H]3O)[C@H]3COC(=O)[C@H]23)OCO4)cc(OC)c1O [ETOPOSIDE] | – | – | – | – | – | – | – | 8.4 | 49.6 | –
6 | > 50 | CC1(C)CCC[C@]2(C)C3=C(COC3=O)C[C@H](O)[C@@H]12 | inactive | inactive | inactive | inactive | inactive | inactive | inactive | – | – | –
7 | 22.2 | CC1(C)CCC[C@]2(C)C3=C(COC3=O)C[C@H](OC(=O)/C=C/c3ccccc3F)[C@@H]12 | inactive | inactive | inactive | inactive | inactive | inactive | inactive | > 4.5 | > 100 | –
8 | 14.2 | CC1(C)CCC[C@]2(C)C3=C(COC3=O)C[C@H](OC(=O)/C=C/c3ccc(O)cc3)[C@@H]12 | inactive | inactive | inactive | inactive | inactive | inactive | inactive | > 6.9 | > 100 | –
